Patent US20260158149A1, “GLYCOSYLATED PRODRUGS” (UNIVERSITEIT LEIDEN, priority 2021, published 2026)
Entries after “also recorded” stand apart in the source; their conditions may differ.

Tests used:
Larval body length = type: in vivo, Zebrafish (Danio rerio); details: 5 dpf, treatment from 2 hpf
Method: (§1) When the regeneration of the tail fins after wounding or the larval body length was used as a readout, chemical treatments of the embryos were started at 2 hours post fertilization (hpf) and continued until 5 dpf. During this period, solutions were refreshed daily. At 5 dpf, larvae were imaged using a LeicaMZ16FA fluorescence stereomicroscope supported by LAS 3.7 software, and the length of the larvae was measured using ImageJ software (15 larvae per treatment group). For the regeneration experiments, tail fins were amputated at 2 dpf and larvae were imaged at 5 dpf (15 larvae per treatment group). The newly grown tissue can be distinguished from the old tissue, enabling precise measurement of the size of the newly grown tissue using ImageJ software.

[1] = Whole-body glucose measurement in larvae; details: 5 dpf larvae treated from 2 hpf, non-wounded
Method: Zebrafish embryos at 2 hpf received a chemical treatment, as indicated, with daily refreshment of the solutions, until 5 dpf. At 5 dpf, the larvae were collected in an Eppendorf tube and 100 μL of ice-cold glucose buffer was added to each sample. The larvae were homogenized using a BulletBlender® for 3 min at 8,000 rpm. The homogenates were then centrifuged at 4° C. for 8 min at 11000 rpm and the supernatant was stored at −20° C. Whole-body glucose concentrations were determined using a Glucose Colorimetric Assay kit (Cayman Chemical, USA), according to the manufacturer's instructions. In each experiment, three biological replicates were used for each treatment group, and the colorimetric assay was performed using technical duplicates.

[2] = Whole-body cortisol measurement using ELISA; details: for whole body cortisol level: 5 dpf larvae treated from 2 hpf, non-wounded; for whole body cortisol level under wounding conditions / whole body cortisol level under wounding conditions with MZ31: 5 dpf larvae, wounded at 2 dpf; for whole body cortisol level under wounding conditions with MZ31: GBA2 inhibitor MZ31
Method: Zebrafish embryos at 2 hpf received a chemical treatment, as indicated, with daily refreshment of the solutions, until 96 hpf. Then, the treatments were stopped and embryos were incubated in egg water until 5 dpf to avoid cross-reactivity with the compounds of the cortisol antibody used in the ELISA. Then, the treatments were stopped and replaced with egg water. At 5 dpf, the larvae were collected in an Eppendorf tube and 100 μL of ice-cold phosphate-buffered saline (PBS) was added. The larvae were homogenized using a BulletBlender® for 3 min at 8,000 rpm. Ethyl acetate was added to the homogenate and the supernatant was gathered and vaporized. A volume of 150 μl of 0.2% Bovine serum albumin (Sigma Aldrich) dissolved in phosphate-buffered saline (PBS) was added to the samples and frozen. Whole-body cortisol of the zebrafish larvae was determined by ELISA (Demeditec Diagnostics GmbH, Kiel-Wellsee, Germany), following the manufacturer's instructions. In each experiment, three biological replicates were used for each treatment group, and the colorimetric assay was performed using technical duplicates.

[3] = test system: neutrophils migrated to the wounded area; experiment: Tail fin amputation assay: neutrophil migration to the wounded area; type: in vivo, Zebrafish (Danio rerio); details: for reduction in neutrophil migration in the presence of MZ31: GBA2 inhibitor MZ31; for neutrophil migration in Gba2-deficient larvae: gba2-/- mutant line; for inhibition of neutrophil migration in Gr deficient larvae: gr mutant line (gr-/-); for reduction in neutrophil migration in the presence of miglustat: non-specific GBA inhibitor miglustat
Method: Zebrafish (Danio rerio) were maintained and handled according to the guidelines from the Zebrafish Model Organism Database (https://zfin.org/) and in compliance with the directives of the local animal welfare committee of Leiden University. To maintain circadian rhythmicity, adult fish were exposed to a 14 h light and 10 h dark cycle. Fertilization was performed by natural spawning at the beginning of the light period. Fertilized eggs were collected and raised at 28° C. in egg water (60 μg/ml Instant Ocean sea salts and 0.0025% methylene blue). The following zebrafish lines were used in this study: AB/TL wild type, the transgenic lines Tg(mpx:GFP^i114/mpeg1:mCherry^umsF001) (Bernut et al., (2014). Mycobacterium abscessus cording prevents phagocytosis and promotes abscess formation. Proc Natl Acad Sci USA 111, E943-952; Renshaw et al., (2006). A transgenic zebrafish model of neutrophilic inflammation. Blood 108, 3976-3978), and Tg(9xGCRE-HSV.UI123:EGFP)^ia20 (Benato et al., (2014). A living biosensor model to dynamically trace glucocorticoid transcriptional activity during development and adult life in zebrafish. Mol Cell Endocrinol 392, 60-72), and the mutant lines gba2^−/− (Lelieveld et al., (2019). Role of beta-glucosidase 2 in aberrant glycosphingolipid metabolism: model of glucocerebrosidase deficiency in zebrafish. J Lipid Res 60, 1851-1867) and gr^s357 (Ziv et al., (2013). An affective disorder in zebrafish with mutation of the glucocorticoid receptor. Mol Psychiatry 18, 681-691).
(§2) For the tail fin amputation experiments, 3 days post fertilization (dpf) larvae from the Tg(mpx:GFP^i114/mpeg1:mCherry^umsF001) line were anesthetized in 0.02% buffered aminobenzoic acid ethyl ester (tricaine) in egg water and placed on a 2% agarose-coated petri dish. The tails were partially amputated with a 1 mm sapphire blade (World Precision Instruments) under a Leica M165C stereomicroscope (Leica Microsystems, Wetzlar, Germany). Chemical treatment (or 0.1% DMSO as vehicle treatment) was started at 2 h before the amputation (pretreatment) and was continued for 4 h after the tail fin amputation (20 larvae per group, unless indicated otherwise), at which time point the larvae were fixed in 4% paraformaldehyde (PFA) overnight at 4° C. and stored at 4° C. until further examination. In some experiments, a 24 h treatment with miglustat, ME656 or MZ31 was started at 2 dpf, and these treatments were continued during the pretreatment and treatment with the other chemicals. For imaging of larvae from the Tg(mpx:GFP^i114/mpeg1:mCherry^umsF001) line, a LeicaMZ16FA fluorescence stereomicroscope with LAS 3.7 software was used. Neutrophils were detected by GFP fluorescence and macrophages by mCherry fluorescence. The neutrophil numbers were determined by blinded manual counting in a pre-determined area. When larvae from gba2^−/− or gr^s357mutant lines were used, neutrophil labeling was performed with the TSA fluorescein detection kit (PerkinElmer) for specific staining of Myeloperoxidase (Mpx)-positive cells, following the manufacturer's instructions.

[4] = test system: il1b, il6, mmp9, mmp13, il8 mRNA; experiment: qPCR of pro-inflammatory genes after tail wounding; type: in vivo, Zebrafish (Danio rerio)
From the text: as §2
For experiments in zebrafish, gene expression was measured using 3 dpf embryos. Groups of 15 larvae were collected in TRIzol reagent (Invitrogen) and mRNA was isolated using the miRNeasy mini kit (Qiagen), according to the manufacturer's instructions. For experiments in HeLa cells, samples were collected from a single well from 6 well plates (80% confluent) in TRIzol reagent and mRNA was isolated using the RNeasy mini kit. Zebrafish and cells samples were treated with DNAse utilizing the DNA-Free™ kit (Ambion). The cDNA synthesis was performed using iScript cDNA synthesis kit (Bio-Rad) using 1 μg of RNA per sample. For qPCR, 10 μM of forward and 10 μM of reverse primer, 12.5 μL of iQ SYBR Green Supermix (Bio-Rad), and 2 μL of cDNA were added to the qPCR reaction mixture. […] The qPCR reactions were performed on a MyiQ-single-color real-time PCR detection system (Bio-Rad) with initial denaturation for 3 min at 95° C. and 40 cycles of 15 s at 95.5° C., 15 s at 60° C., and 30 s at 72° C. Cycle threshold values (Ct values, i.e. the cycle numbers at which a threshold value of the fluorescence intensity was reached) were determined for each sample. The gene expression level for each sample was normalized using the expression of ppial (peptidylprolyl isomerase Ab (cyclophilin A)) for zebrafish samples, and 18S rRNA for human cells. The fold change per sample (compared to the respective control group) was calculated using the ΔΔCt method.

regenerated tail fin = experiment: Regeneration of the tail fin after wounding; type: in vivo, Zebrafish (Danio rerio); details: 5 dpf larvae, wounded at 2 dpf; for tissue regeneration with MZ31: GBA2 inhibitor MZ31
Method: as §1

Gr = experiment: Transactivation activity of Gr in Tg(9xGCRE-HSV.UI23:EGFP) reporter line; type: in vivo, Zebrafish (Danio rerio); details: 24 h treatment, 3 dpf larvae
Method: The Tg(9xGCRE-HSV.UI23:EGFP)^ia20 zebrafish reporter line expresses enhanced green fluorescent protein (EGFP) under the control of a promoter containing an array of nine GREs. To study the effect of chemical treatments on the transactivation activity of the Gr, 15 zebrafish embryos per group (2 dpf) were treated with the indicated compounds for 24 hours. The transactivation activity of Gr induced by the treatments was assessed using a LeicaMZ16FA fluorescence stereomicroscope supported by LAS 3.7 software. The integrated intensity of the EGFP signal in the larvae was determined using ImageJ software.

IL-6 = experiment: CAIA model: serum IL-6 by ELISA; type: in vivo, mouse
Method: All mice received 1.5 mg of a CAIA-cocktail (Chondrex) intravenously on day 1, followed by intraperitoneal (i.p.) injection of 50 μg LPS (Chondrex) on day 4. Mice were randomly divided into six groups. […] Scores were assigned blinded. […] The blood collection on day 14 was performed after 6 h fasting. On day 15, mice were sacrificed using carbon dioxide, and tissue samples were collected that were immediately frozen in liquid nitrogen. Applied humane endpoints were a total body weight loss of >20% in comparison to the day of LPS treatment or reaching an arthritis score of 45.
IL-6 concentrations were determined by ELISA in the serum collected at days 10 and 15, using the IL-6 mouse ELISA kit (Invitrogen), following the manufacturer's protocol. The insulin concentration was determined in serum collected at day 14, using the Ultra-sensitive mouse insulin ELISA kit (Crystal Chem), following the manufacturer's protocol. Corticosterone concentrations were determined in serum collected at day 15, using the Corticosterone HS (high sensitivity) enzyme immunoassay kit (Immunodiagnostic Systems), following the manufacturer's protocol. Expression levels of various GR target genes were determined by qPCR in the tissue samples (homogenized in TRIzol Reagent (ThermoFisher)) collected at day 15.

[5] = test system: collagen antibody-induced arthritis (CAIA)
[6] = Pdn 12.5 or 25 mg/kg i.p. daily from day 7

Row | whole body glucose level [1] | tissue regeneration with MZ31 (regenerated tail fin) | whole body cortisol level under wounding conditions [2] | whole body cortisol level under wounding conditions with MZ31 [2] | SMILES | larval length (Larval body length) | whole body cortisol level [2] | reduction in neutrophil migration in the presence of MZ31 [3] | neutrophil migration in Gba2-deficient larvae [3] | inhibition of neutrophil migration in Gr deficient larvae [3] | reduction in neutrophil migration in the presence of miglustat [3] | wounding-induced increase in expression of il1b, il6 and mmp9 [4] | tissue regeneration (length of regenerated tail fin) (regenerated tail fin) | transactivation activity of Gr (GFP signal in GRE:GFP reporter fish line) (Gr) | migration of neutrophils towards the wounded area ([3]; wild type larvae, 4 h after tail wounding) | expression of the pro-inflammatory genes il1b, il6 and il8 [4] | serum IL-6 level compared to the vehicle group (IL-6; day 10, all treatment groups) | serum IL-6 level (IL-6; day 15, all groups except 12.5 mg/kg GbPdn) | arthritis score at maximal reduction [5, 6] | day of maximal reduction of arthritis score [5, 6] [days] | arthritis scores after treatment initiation ([5]; all dose groups, daily i.p. from day 7)
1 | did not show any effect on glucose | GBA2-dependent | minor effect | GBA2-dependent | CC(C)=CCC[C@](C)(O[C@@H]1O[C@H](CO)[C@@H](O)[C@H](O)[C@H]1O)[C@H]1CC[C@]2(C)[C@@H]1[C@H](O)C[C@@H]1[C@@]3(C)CC[C@H](O[C@@H]4O[C@H](CO)[C@@H](O)[C@H](O)[C@H]4O)C(C)(C)[C@@H]3CC[C@]12C [F2] |  | neither did they affect the cortisol concentration | abolished | did not affect the neutrophil migration | the inhibition of neutrophil migration was abolished | abolished | strongly suppressed | neither did they affect; also recorded: minor effect | did not cause an increase in the fluorescence intensity |  |  |  |  |  |  | 
2 |  |  |  |  | C[C@]12C=CC(=O)C=C1CC[C@@H]1[C@@H]2[C@@H](O)C[C@@]2(C)[C@H]1CC[C@]2(O)C(=O)CO [Pdn, prednisolone] |  | significantly larger decrease |  |  |  |  |  |  |  | inhibited the neutrophil migration | these effects were similar to those observed upon Pdn and GPdn treatment | significant reduction of the IL-6 level | undetectable | approximately 0 | 11 | decreased rapidly after treatment initiation
3 | did not show any effect on glucose | GBA2-dependent | minor effect | GBA2-dependent | CC(C)=CCC[C@](C)(O[C@@H]1O[C@H](CO[C@@H]2O[C@H](CO)[C@@H](O)[C@H](O)[C@H]2O)[C@@H](O)[C@H](O)[C@H]1O)[C@H]1CC[C@]2(C)[C@@H]1[C@H](O)C[C@@H]1[C@@]3(C)CC[C@H](O[C@@H]4O[C@H](CO)[C@@H](O)[C@H](O)[C@H]4O[C@@H]4O[C@H](CO)[C@@H](O)[C@H](O)[C@H]4O)C(C)(C)[C@@H]3CC[C@]12C [Rb1] |  | neither did they affect the cortisol concentration | abolished | did not affect the neutrophil migration | the inhibition of neutrophil migration was abolished | abolished | strongly suppressed | neither did they affect; also recorded: minor effect | did not cause an increase in the fluorescence intensity |  |  |  |  |  |  | 

Row | SMILES | whole body glucose level [1] | tissue regeneration with MZ31 (regenerated tail fin) | whole body cortisol level under wounding conditions [2] | whole body cortisol level under wounding conditions with MZ31 [2] | larval length (Larval body length) | whole body cortisol level [2] | reduction in neutrophil migration in the presence of MZ31 [3] | neutrophil migration in Gba2-deficient larvae [3] | inhibition of neutrophil migration in Gr deficient larvae [3] | reduction in neutrophil migration in the presence of miglustat [3] | wounding-induced increase in expression of il1b, il6 and mmp9 [4] | tissue regeneration (length of regenerated tail fin) (regenerated tail fin) | transactivation activity of Gr (GFP signal in GRE:GFP reporter fish line) (Gr) | migration of neutrophils towards the wounded area ([3]; wild type larvae, 4 h after tail wounding) | expression of the pro-inflammatory genes il1b, il6 and il8 [4] | serum IL-6 level compared to the vehicle group (IL-6; day 10, all treatment groups) | serum IL-6 level (IL-6; day 15, all groups except 12.5 mg/kg GbPdn) | arthritis score at maximal reduction [5, 6] | day of maximal reduction of arthritis score [5, 6] [days] | arthritis scores after treatment initiation ([5]; all dose groups, daily i.p. from day 7)
4 | C[C@@H]1C[C@H]2[C@@H]3CCC4=CC(=O)C=C[C@]4(C)[C@@]3(F)[C@@H](O)C[C@]2(C)[C@@]1(O)C(=O)CO [Dex, dexamethasone] | increased the glucose concentration |  |  |  | decreased | decreased the cortisol level; also recorded: significantly larger decrease |  |  |  |  |  |  |  |  |  |  |  |  |  | 
